Experimental data: patent US11155879B2, “Method of predicting effects of CDC7 inhibitor” (TAKEDA PHARMACEUTICAL COMPANY LIMITED, priority 2017, dated 2021)

System: pancreatic patient-derived tumor xenografts (PDX models)
Assay: In vivo antitumor activity in female BALB/c nude mice bearing patient-derived tumor xenografts (PDXs)
Conditions: 60 mg/kg, Bid, po, 21 days, 3 days on 4 days off
Excerpt: In Vivo Antitumor Activity of Compound 1 Hemihydrate in Female BALB/c Nude Mice Bearing Patient-Derived Tumor Xenografts (PDXs)
Tumor fragments from seed mice inoculated with selected PDX tumors were harvested and used for inoculation into BALB/c nude mice. Each mouse was inoculated subcutaneously at the right flank with one tumor fragment (2-3 mm in diameter). The treatments were started when mean tumor size reached approximately 200-250 mm^3. For each model, 6 tumor bearing mice were randomized into 2 groups. Mice were dosed orally with either vehicle (0.5% w:v methyl cellulose) or Compound 1 hemihydrate Form A crystal (60 mg/kg, Bid, po, 21 days, 3 days on 4 days off).
The % tumor growth inhibition (TGI) was taken as endpoints to determine when the tumor growth can be delayed or mice can be cured. Tumor sizes were measured twice weekly in two dimensions using a caliper, and the volume is expressed in mm^3 using the formula: V=0.5a×b^2,
where a and b are the long and short diameters of the tumor, respectively. The % TGI was calculated using the following formula: % TGI=(1−(Ti-T0)/(Vi-V0))*100 […]

Question: How did the “tumor growth inhibition (% TGI)” value (22 out of 25 pancreatic PDX models, vs vehicle (0.5% methyl cellulose)) turn out when `Cc1n[nH]cc1-c1cc2nc([C@@H]3CC4CCN3CC4)[nH]c(=O)c2s1` [Compound 1 hemihydrate, 2-[(2S)-1-azabicyclo[2.2.2]oct-2-yl]-6-(3-methyl-1H-pyrazol-4-yl)thieno[3,2-d]pyrimidin-4(3H)-one] was run?
Answer: > 60%

Question: And the “sensitivity of KRAS-mutant pancreatic tumors compared to KRAS-wild type ones (correlative study on % TGI, FIG. 1)” value (pancreatic PDX models, Student's t-test KRAS-mutant vs KRAS-wild)?
Answer: more sensitive
